From PubChem BioAssay (NCI)
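How tested: cells in 96-well plates exposed to compound for 48 hours at five concentrations. TGI marks complete inhibition of growth.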

Key:
Experiment in all cases: NCI anticancer screen, dose series, 48 h
[1] = tested on: 786-0 renal
[2] = tested on: A498 renal
[3] = tested on: A549 NSCLC
[4] = tested on: ACHN renal
[5] = tested on: CAKI-1 renal
[6] = tested on: CCRF-CEM leukemia
[7] = tested on: COLO 205 colon
[8] = tested on: DLD-1 colon
[9] = tested on: DMS 114 small cell lung
[10] = tested on: DMS 273 small cell lung
[11] = tested on: EKVX NSCLC
[12] = tested on: HCC-2998 colon
[13] = tested on: HCT-116 colon
[14] = tested on: HCT-15 colon
[15] = tested on: HL-60(TB) leukemia
[16] = tested on: HOP-18 NSCLC
[17] = tested on: HOP-62 NSCLC
[18] = tested on: HOP-92 NSCLC
[19] = tested on: HT29 colon
[20] = tested on: IGROV1 ovarian
[21] = tested on: K-562 leukemia
[22] = tested on: KM12 colon
[23] = tested on: KM20L2 colon
[24] = tested on: LOX IMVI melanoma
[25] = tested on: LXFL 529 NSCLC
[26] = tested on: M14 melanoma
[27] = tested on: M19-MEL melanoma
[28] = tested on: MALME-3M melanoma
[29] = tested on: MOLT-4 leukemia
[30] = tested on: NCI-H226 lung
[31] = tested on: NCI-H23 lung
[32] = tested on: NCI-H460 lung
[33] = tested on: NCI-H522 lung
[34] = tested on: OVCAR-3 ovarian
[35] = tested on: OVCAR-4 ovarian
[36] = tested on: OVCAR-5 ovarian
[37] = tested on: OVCAR-8 ovarian
[38] = tested on: RPMI-8226 leukemia
[39] = tested on: RXF 393 renal
[40] = tested on: SF-268 CNS
[41] = tested on: SF-295 CNS
[42] = tested on: SF-539 CNS
[43] = tested on: SK-MEL-2 melanoma
[44] = tested on: SK-MEL-28 melanoma
[45] = tested on: SK-MEL-5 melanoma
[46] = tested on: SK-OV-3 ovarian
[47] = tested on: SN12C renal
[48] = tested on: SNB-19 CNS
[49] = tested on: SNB-75 CNS
[50] = tested on: SNB-78 CNS
[51] = tested on: SR leukemia
[52] = tested on: SW-620 colon
[53] = tested on: TK-10 renal
[54] = tested on: U251 CNS
[55] = tested on: UACC-257 melanoma
[56] = tested on: UACC-62 melanoma
[57] = tested on: UO-31 renal
[58] = tested on: XF 498 CNS
[59] = tested on: RXF-631 renal

CN(C)CCN(C)CCC(=O)/C=C/c1ccccc1
TGI [1]: 29.9 µM
TGI [2]: > 100 µM
TGI [3]: > 100 µM
TGI [4]: > 69.9 µM
TGI [5]: 49.9 µM
TGI [6]: 23 µM
TGI [7]: 36 µM
TGI [8]: 39.9 µM
TGI [9]: > 66.3 µM
TGI [10]: 34 µM
TGI [11]: > 93.8 µM
TGI [12]: > 69.6 µM
TGI [13]: 31.4 µM
TGI [14]: 50.1 µM
TGI [15]: 53.5 µM
TGI [16]: > 100 µM
TGI [17]: > 100 µM
TGI [18]: 56.9 µM
TGI [19]: 41.2 µM
TGI [20]: > 68.2 µM
TGI [21]: > 52.8 µM
TGI [22]: 52.5 µM
TGI [23]: > 100 µM
TGI [24]: > 100 µM
TGI [25]: 32.6 µM
TGI [26]: 40.6 µM
TGI [27]: 40.9 µM
TGI [28]: 35.6 µM
TGI [29]: 27.2 µM
TGI [30]: > 88.7 µM
TGI [31]: > 61.1 µM
TGI [32]: > 100 µM
TGI [33]: 9.64 µM
TGI [34]: > 61.4 µM
TGI [35]: > 61.2 µM
TGI [36]: > 100 µM
TGI [37]: 47.1 µM
TGI [38]: 6.54 µM
TGI [39]: 45.3 µM
TGI [40]: > 94.5 µM
TGI [41]: > 58.4 µM
TGI [42]: 39.6 µM
TGI [43]: > 74.6 µM
TGI [44]: 43.6 µM
TGI [45]: > 62.1 µM
TGI [46]: > 100 µM
TGI [47]: 48.5 µM
TGI [48]: > 100 µM
TGI [49]: > 60.8 µM
TGI [50]: > 77.6 µM
TGI [51]: 27.3 µM
TGI [52]: 37.7 µM
TGI [53]: > 63.9 µM
TGI [54]: > 100 µM
TGI [55]: 51.4 µM
TGI [56]: 71.4 µM
TGI [57]: > 100 µM
TGI [58]: 49.6 µM

COc1ccc(SS(=O)(=O)c2ccc(OC)cc2)cc1
TGI [1]: 32.7 µM
TGI [2]: 37 µM
TGI [3]: 69.2 µM
TGI [4]: 33.1 µM
TGI [5]: 43.3 µM
TGI [6]: 10.2 µM
TGI [7]: 33.2 µM
TGI [8]: 52.3 µM
TGI [9]: 30.6 µM
TGI [11]: 71.6 µM
TGI [12]: 29.8 µM
TGI [13]: 30.3 µM
TGI [14]: > 100 µM
TGI [15]: 7.81 µM
TGI [16]: 48.3 µM
TGI [17]: 50.9 µM
TGI [18]: 60.4 µM
TGI [19]: 64.1 µM
TGI [20]: 24.4 µM
TGI [21]: 47 µM
TGI [22]: 30.7 µM
TGI [23]: 38 µM
TGI [24]: 31.8 µM
TGI [25]: 34.4 µM
TGI [26]: 41.6 µM
TGI [27]: 46.4 µM
TGI [28]: 80.4 µM
TGI [29]: 47.8 µM
TGI [30]: 50.1 µM
TGI [31]: 49.1 µM
TGI [32]: 83.9 µM
TGI [33]: 29.2 µM
TGI [34]: 33.8 µM
TGI [36]: 76.4 µM
TGI [37]: 31.9 µM
TGI [38]: 75.4 µM
TGI [39]: 32.3 µM
TGI [59]: > 100 µM
TGI [40]: 32.9 µM
TGI [41]: 39.3 µM
TGI [42]: 34 µM
TGI [43]: 87.5 µM
TGI [44]: 40.1 µM
TGI [45]: 33 µM
TGI [46]: 69.4 µM
TGI [47]: 36.7 µM
TGI [48]: 65 µM
TGI [49]: 45.5 µM
TGI [50]: > 100 µM
TGI [51]: 61.4 µM
TGI [52]: 18.1 µM
TGI [53]: 50.2 µM
TGI [54]: 27.6 µM
TGI [55]: 49.4 µM
TGI [56]: 38.5 µM
TGI [57]: 27.2 µM
